Laboratory results: patent publication US8273773B2 (priority 2008, dated 2012)

Biological target: T1, HCV polymerase (NS5B570n-Con1) (Hepatitis C virus genotype 1b, UniProt Q9WMX2)
T1 construct: contains a 21 amino acid deletion at the C-terminus relative to the full-length HCV polymerase; 6-histidine (N); made in house; host or cells: E. coli strain BL21(DE) pLysS (pET17b)
Assay: biochemical
Parameters: species or system HCV Con1 strain

[1] = IC50 HCV NS5B RNA Polymerase Assay (values with asterisk), values with asterisk: cIRES RNA template, 3 nM NS5B570n-Con1
[2] = IC50 HCV NS5B RNA Polymerase Assay, values without asterisk, 20 nM NS5B570n-Con1 enzyme, 20 nM cIRES RNA template
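Also: recombinant His-tagged enzyme from E. coli, radiolabeled nucleotide incorporation into acid-insoluble RNA read by scintillation after filtration, no-enzyme background subtracted, activity relative to positive control.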

Row | Compound | IC50 [1] | IC50 [2]
1 | COC(=O)c1cc(NS(C)(=O)=O)ccc1/C=C/c1cc(-c2ccc(C)[nH]c2=O)cc(C(C)(C)C)c1OC [I-201, 2-{(E)-2-[3-tert-Butyl-2-methoxy-5-(6-methyl-2-oxo-1,2-dihydro-pyridin-3-yl)-phenyl]-vinyl}-5-methanesulfonylamino-benzoic acid methyl ester] | 1 nM | 
2 | COc1c(CC(C(=O)O)c2ccc(NS(C)(=O)=O)cc2)cc(-c2ccc[nH]c2=O)cc1C(C)(C)C (centres unmarked) [I-179, 3-[3-tert-Butyl-2-methoxy-5-(2-oxo-1,2-dihydro-pyridin-3-yl)-phenyl]-2-(4-methanesulfonylamino-phenyl)-propionic acid] |  | 8 nM
3 | COc1c(/C=C/c2ccc(NS(C)(=O)=O)cc2)cc(-c2ccc(C)[nH]c2=O)cc1C1(Cl)CC1 [I-265] | 5 nM | 
4 | CC(C)(C)c1cc(/C=C/c2ccc(NS(C)(=O)=O)cc2C(=O)O)cc(-c2ccc[nH]c2=O)c1 [I-159, 2-{(E)-2-[3-tert-Butyl-5-(2-oxo-1,2-dihydro-pyridin-3-yl)-phenyl]-vinyl}-5-methanesulfonylamino-benzoic acid] |  | 8 nM
5 | COc1c(/C=C/c2ccccc2F)cc(-c2ccc[nH]c2=O)cc1C(C)(C)C [I-237, 3-{3-tert-Butyl-5-[(E)-2-(2-fluoro-phenyl)-vinyl]-4-methoxy-phenyl}-1H-pyridin-2-one] | 13 nM | 
6 | Cc1cc(-c2ccc[nH]c2=O)cc(C2(C)CCC2)c1 [I-28] |  | 1460 nM
7 | CC(C)(C)c1cc(/C=C/c2ccc(NS(C)(=O)=O)cn2)c(O)c(-c2ccc[nH]c2=O)c1 [I-167, N-(6-{(E)-2-[5-tert-Butyl-2-hydroxy-3-(2-oxo-1,2-dihydro-pyridin-3-yl)-phenyl]-vinyl}-pyridin-3-yl)-methanesulfonamide] |  | 21 nM
8 | COc1c(C(=O)Nc2cccc(NS(C)(=O)=O)c2)cc(-c2ccc[nH]c2=O)cc1C(C)(C)C [I-259, 3-tert-Butyl-N-(3-methanesulfonylamino-phenyl)-2-methoxy-5-(2-oxo-1,2-dihydro-pyridin-3-yl)-benzamide] |  | 122 nM
9 | COCCOc1cc(NS(C)(=O)=O)ccc1C(=O)Nc1cc(-c2ccc[nH]c2=O)cc(C(C)(C)C)c1OC [I-276, N-[3-tert-Butyl-2-methoxy-5-(2-oxo-1,2-dihydro-pyridin-3-yl)-phenyl]-4-methanesulfonylamino-2-(2-methoxy-ethoxy)-benzamide] |  | 20 nM
10 | COc1c(/C=C/c2ccc(NS(C)(=O)=O)cn2)cc(-c2cc(F)c[nH]c2=O)cc1C(C)(C)C [I-170, N-(6-{(E)-2-[3-tert-Butyl-5-(5-fluoro-2-oxo-1,2-dihydro-pyridin-3-yl)-2-methoxy-phenyl]-vinyl}-pyridin-3-yl)-methanesulfonamide] |  | 6 nM
11 | COc1c(/C=C/c2ccc(NS(C)(=O)=O)cc2)cc(-c2cc(F)c[nH]c2=O)cc1C1(C(F)F)CC1 [I-269, N-(4-{(E)-2-[3-(1-Difluoromethyl-cyclopropyl)-5-(5-fluoro-2-oxo-1,2-dihydro-pyridin-3-yl)-2-methoxy-phenyl]-vinyl}-phenyl)-methanesulfonamide] | 3 nM | 
12 | COc1c(/C=C/c2ccc(NS(=O)(=O)CCCN3CCCC3)cc2)cc(-c2ccc[nH]c2=O)cc1C(C)(C)C [I-234, 3-Pyrrolidin-1-yl-propane-1-sulfonic acid (4-{(E)-2-[3-tert-butyl-2-methoxy-5-(2-oxo-1,2-dihydro-pyridin-3-yl)-phenyl]-vinyl}-phenyl)-amide] | 4 nM | 
13 | COc1c(C(=O)NCc2cncn2C)cc(-c2ccc[nH]c2=O)cc1C(C)(C)C [I-39] |  | 1340 nM
14 | COc1c(/C=C/c2ccc(NS(C)(=O)=O)cc2)cc(-c2ccc[nH]c2=O)cc1C(C)(C)OC [I-289, N-(4-{(E)-2-[2-Methoxy-3-(1-methoxy-1-methyl-ethyl)-5-(2-oxo-1,2-dihydro-pyridin-3-yl)-phenyl]-vinyl}-phenyl)-methanesulfonamide] | 2 nM | 
15 | COc1c(/C=C/c2ccc(NS(C)(=O)=O)cc2F)cc(-c2cc(F)c[nH]c2=O)cc1C(C)(C)C [I-236, N-(4-{(E)-2-[3-tert-Butyl-5-(5-fluoro-2-oxo-1,2-dihydro-pyridin-3-yl)-2-methoxy-phenyl]-vinyl}-3-fluoro-phenyl)-methanesulfonamide] | 1 nM | 
16 | COc1c(NC(=O)c2ccc(NCC(F)(F)F)c(F)c2)cc(-c2ccc[nH]c2=O)cc1C(C)(C)C [I-251, N-[3-tert-Butyl-2-methoxy-5-(2-oxo-1,2-dihydro-pyridin-3-yl)-phenyl]-3-fluoro-4-(2,2,2-trifluoro-ethylamino)-benzamide] | 2 nM | 
17 | COc1c(NC(=O)c2ccc(NC3CC3)cc2)cc(-c2ccc[nH]c2=O)cc1C(C)(C)C [I-256, N-[3-tert-Butyl-2-methoxy-5-(2-oxo-1,2-dihydro-pyridin-3-yl)-phenyl]4-cyclopropylamino-benzamide] |  | 19 nM
18 | COc1c(C(=O)N2CCCC(CO)C2)cc(-c2ccc[nH]c2=O)cc1C(C)(C)C (centres unmarked) [I-24] |  | 1530 nM
19 | COc1c(/C=C/c2ccc(NS(C)(=O)=O)cn2)cc(-c2ccc[nH]c2=O)cc1C1(C(F)F)CC1 [I-258, N-(6-{(E)-2-[3-(1-Difluoromethyl-cyclopropyl)-2-methoxy-5-(2-oxo-1,2-dihydro-pyridin-3-yl)-phenyl]-vinyl}-pyridin-3-yl)-methanesulfonamide] | 1 nM | 

Row | Compound | IC50 [1] | IC50 [2]
20 | COc1c(/C=C/c2ccc(NS(=O)(=O)CC(F)(F)F)cn2)cc(-c2cc(F)c[nH]c2=O)cc1C(C)(C)C [I-229, 2,2,2-Trifluoro-ethanesulfonic acid (6-{(E)-2-[3-tert-butyl-5-(5-fluoro-2-oxo-1,2-dihydro-pyridin-3-yl)-2-methoxy-phenyl]-vinyl}-pyridin-3-yl)-amide] | 2 nM | 
21 | COc1c(C(=O)NCCN(C)C)cc(-c2ccc[nH]c2=O)cc1C(C)(C)C [I-43] |  | 1750 nM
22 | COc1c(/C=C/c2ccc(NS(C)(=O)=O)cc2)cc(-c2cc(Cl)c[nH]c2=O)cc1C1(Cl)CC1 [I-264] | 5 nM | 
23 | COc1c(/C=C/c2ccccc2S(C)(=O)=O)cc(-c2ccc[nH]c2=O)cc1C(C)(C)C [I-244, 3-{3-tert-Butyl-5-[(E)-2-(2-methanesulfonyl-phenyl)-vinyl]-4-methoxy-phenyl}-1H-pyridin-2-one] | 1 nM | 
24 | CS(=O)(=O)Nc1ccc(/C=C/c2cc(-c3cc(F)c[nH]c3=O)cc(C3(Cl)CC3)c2)cc1 [I-273, N-(4-{(E)-2-[3-(1-Chloro-cyclopropyl)-5-(5-fluoro-2-oxo-1,2-dihydro-pyridin-3-yl)-phenyl]-vinyl}-phenyl)-methanesulfonamide] | 3 nM | 
25 | COc1c(/C=C/c2ncc(NS(C)(=O)=O)cc2C)cc(-c2ccc[nH]c2=O)cc1C(C)(C)C [I-213, N-(6-{(E)-2-[3-tert-Butyl-2-methoxy-5-(2-oxo-1,2-dihydro-pyridin-3-yl)-phenyl]-vinyl}-5-methyl-pyridin-3-yl)-methanesulfonamide] | 3 nM | 
26 | COc1c(C(=O)NC2CCCN(C)C2)cc(-c2ccc[nH]c2=O)cc1C(C)(C)C (centres unmarked) [I-77] |  | 1830 nM
27 | COc1c(C(=O)NCc2ccc(N(C)C)cc2)cc(-c2ccc[nH]c2=O)cc1C(C)(C)C [I-40] |  | 1600 nM
28 | COc1c(NC(=O)c2ccc(N)cc2C(F)(F)F)cc(-c2ccc[nH]c2=O)cc1C(C)(C)C [I-279] |  | 104 nM
29 | COc1c(/C=C/c2ccc(NS(C)(=O)=O)cc2)cc(-c2cc(Cl)c[nH]c2=O)cc1C1(C)COC1 [I-291] | 2 nM | 
30 | COCc1cc(NS(C)(=O)=O)ccc1/C=C/c1cc(-c2ccc(C)[nH]c2=O)cc(C(C)(C)C)c1OC [I-208, N-(4-{(E)-2-[3-tert-Butyl-2-methoxy-5-(6-methyl-2-oxo-1,2-dihydro-pyridin-3-yl)-phenyl]-vinyl}-3-methoxymethyl-phenyl)-methanesulfonamide] | 1 nM | 
31 | COc1c(/C=C/c2ccc(NS(C)(=O)=O)cc2)cc(-c2ccc[nH]c2=O)cc1C1(OC)CC1 [I-266, N-(4-{(E)-2-[3-(1-methoxycyclopropyl)-5-(2-oxo-1,2-dihydropyridin-3-yl)-2-methoxyphenyl]vinyl}-phenyl)methanesulfonamide] | 3 nM | 
32 | COc1c(/C=C/c2ccc(NC(C)=O)cn2)cc(-c2cc(F)c[nH]c2=O)cc1C(C)(C)C [I-169, N-(6-{(E)-2-[3-tert-Butyl-5-(5-fluoro-2-oxo-1,2-dihydro-pyridin-3-yl)-2-methoxy-phenyl]-vinyl}-pyridin-3-yl)-acetamide] |  | 29 nM
33 | COc1c(/C=C/c2ccc(NS(C)(=O)=O)cc2)cc(-c2ccc(COCCO)[nH]c2=O)cc1C(C)(C)C [I-225, N-[4-((E)-2-{3-tert-Butyl-5-[6-(2-hydroxy-ethoxymethyl)-2-oxo-1,2-dihydro-pyridin-3-yl]-2-methoxy-phenyl}-vinyl)-phenyl]-methanesulfonamide] | 6 nM | 
34 | COc1c(N(C)C(=O)c2ccc(NS(C)(=O)=O)cc2)cc(-c2ccc[nH]c2=O)cc1C(C)(C)C [I-104, N-[3-tert-Butyl-2-methoxy-5-(2-oxo-1,2-dihydro-pyridin-3-yl)-phenyl]-4-methanesulfonylamino-N-methyl-benzamide] |  | 107 nM
35 | CC(C)(C)c1cc(-c2ccc[nH]c2=O)cc(NC(=O)c2ccccc2)c1F [I-60] |  | 1090 nM
36 | COC(=O)c1ccccc1/C=C/c1cc(-c2ccc[nH]c2=O)cc(C(C)(C)C)c1OC [I-242, 2-{(E)-2-[3-tert-Butyl-2-methoxy-5-(2-oxo-1,2-dihydro-pyridin-3-yl)-phenyl]-vinyl}-benzoic acid methyl ester] | 2 nM | 
37 | COc1c(C(=O)NC2CCCCC2CO)cc(-c2ccc[nH]c2=O)cc1C(C)(C)C (centres unmarked) [I-93] |  | 1900 nM
38 | COc1c(/C=C/c2ccncc2)cc(-c2ccc[nH]c2=O)cc1C(C)(C)C [I-240, 3-[3-tert-Butyl-4-methoxy-5-((E)-2-pyridin-4-yl-vinyl)-phenyl]-1H-pyridin-2-one] | 5 nM | 
